16 molecules from PubChem BioAssay AID1944 (The Scripps Research Institute Molecular Screening Center, 2009) can be followed below.

Calls of active or inactive are those of the source. No rule for the calls is given here.

This test has as its target Replicase polyprotein 1ab (Severe acute respiratory syndrome coronavirus) (UniProt P0C6X7). As to the kind of experiment: papain-like protease inhibition, dose response, biochemical, luminescence, counter-screen for SARS-CoV 3CLpro inhibitor project (AID 1944). The settings on record: SARS-CoV PLpro enzymatic assay. In general terms: Counterscreens check selectivity or assay interference.
A word on the IC50: it is the midpoint of a concentration-inhibition curve. Regarding `COc1ccc(N(Cc2cc(=O)[nH]c3ccccc23)C(=O)CCl)cc1`, the IC50 was > 59.6 µM (inactive).

For `CCCCOc1ccc(C(=O)Oc2cccnc2)cc1`, the IC50 was 1.61 µM.

For `CCOc1ccc2c(c1)C(=O)C(=O)N2CC1COc2ccccc2O1` (stereo unspecified), the IC50 is > 59.6 µM (inactive).

For `CCc1cc(=O)oc2cc(OC(=O)c3ccco3)ccc12`, the IC50 is > 59.6 µM (inactive).

With `Cc1ccc(C2=NN(C(=O)CCl)C(c3ccco3)C2)o1` (stereo unspecified), the IC50 was > 59.6 µM (inactive).

For `O=C(Nc1ccccc1)NN(C(=O)CCl)c1ccccc1`, the IC50 is > 59.6 µM (inactive).

For the molecule `O=C(O)c1ccc2ncsc2c1`, the IC50 was 7.39 µM.

Consider `N#CCC(=O)N/N=C/c1c(-c2ccccc2)n(-c2ccccc2)c2ccccc12`, for which the IC50 is > 59.6 µM (inactive).

`Cc1ccc(C(=O)c2c3ccccc3[n+]([O-])n2CCC(N)=O)cc1`: the IC50 was 8.04 µM.

Turning to `NC(=O)CCn1c(C(=O)c2cccc([N+](=O)[O-])c2)c2ccccc2[n+]1[O-]`, the IC50 was > 59.6 µM (inactive).

For `CCn1nc(-c2ccccc2)nc2c(=O)n(C)c(=O)nc1-2`, the IC50 was 0.165 µM.

Consider `CCc1cccc(CC)c1N(COC)C(=O)Cn1nnc2ccccc21`, for which the IC50 was > 59.6 µM (inactive).

In the case of `O=C(/C=C/c1ccc(Cl)c([N+](=O)[O-])c1)NCc1cccnc1`, the IC50 was > 59.6 µM (inactive).

Consider `O=C1C(=O)N(C/C=C/c2ccccc2)c2ccccc21`, for which the IC50 was > 59.6 µM (inactive).

For `Cc1cc(=O)oc2cc(OC(=O)c3ccco3)ccc12`, the IC50 was > 59.6 µM (inactive).

Turning to `CCc1ccc2c(c1)C(NC(C)=O)C(=O)N2CCN1CCOCC1` (stereo unspecified), the IC50 is > 59.6 µM (inactive).
